Measurements reported in patent publication US9115137B2, “2,3,4,5-tetrahydro-1H-pyrido[4,3-B]indole compounds and methods of use thereof” (priority 2008, dated 2015).

Legend:
[1] = target: T1, human recombinant serotonin (5-Hydroxytryptamine) 5-HT2C receptor (Homo sapiens, UniProt P28335); assay: Serotonin 5-HT2C radioligand binding ([3H]Mesulergine); conditions: compound at 1 μM; CHO-K1 cells; read-out: Serotonin (1 μM) 5-HT2C, percent inhibition of specific binding
T1 construct: expressed in transfected cells; host or cells: CHO-K1 cells
T1 sequence (P28335 33-458): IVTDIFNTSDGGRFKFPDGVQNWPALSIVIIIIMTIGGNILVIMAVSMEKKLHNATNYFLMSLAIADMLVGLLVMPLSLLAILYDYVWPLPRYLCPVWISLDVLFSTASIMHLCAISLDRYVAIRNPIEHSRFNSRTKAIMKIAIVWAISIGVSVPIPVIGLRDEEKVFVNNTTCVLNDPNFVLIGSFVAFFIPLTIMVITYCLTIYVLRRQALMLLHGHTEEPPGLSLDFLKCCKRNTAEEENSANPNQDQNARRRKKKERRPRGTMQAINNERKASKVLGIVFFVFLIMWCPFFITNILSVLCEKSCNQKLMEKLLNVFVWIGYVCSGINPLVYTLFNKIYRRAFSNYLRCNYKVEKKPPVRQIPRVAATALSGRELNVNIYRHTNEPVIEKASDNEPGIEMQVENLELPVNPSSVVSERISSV
Protocol: To evaluate in radioligand binding assays the activity of compounds of the invention, human recombinant serotonin (5-Hydroxytryptamine) 5-HT2C receptor expressed in Chinese hamster ovary (CHO-K1) cells (Wolf, W. A. and Schutz, J. S., J. Neurochem. 69:1449, 1997) in a modified Tris-HCl buffer (50 mM Tris-HCl, pH 7.4, 0.1% Ascorbic Acid, 10 μM Pargyline) was used. Compounds of the invention were incubated with 1 nM [^3H]Mesulergine for 60 minutes at 25° C. Non-specific binding was estimated in the presence of 1 μM Mianserin. Receptor proteins were filtered and washed, the filters were then counted to determine [^3H]Mesulergine specifically bound. Compounds were screened at 1 μM or lower, using 1% DMSO as vehicle. Biochemical assay results are presented as the percent inhibition of specific binding in Table 7.

[2] = target: T2, human recombinant histamine H2 receptor (Homo sapiens, UniProt P25021); assay: Histamine H2 radioligand binding ([125I]aminopotentidine); conditions: compound at 1 μM; CHO K1 cells; read-out: Histamine Binding (1 μM) H2, percent inhibition of specific binding
T2 construct: expressed in transfected cells; host or cells: CHO-K1 cells
Protocol: To evaluate in radioligand binding assays the activity of compounds of the invention, human recombinant histamine H2 receptor expressed in Chinese hamster ovary (CHO) K1 cells (Ruat, M., Proc. Natl. Acad. Sci. USA. 87(5):1658, 1990) in a 50 mM Phosphate buffer, pH 7.4 was used. Compounds of the invention were incubated with 0.1 nM [^125I]aminopotentidine for 120 minutes at 25° C. Non-specific binding was estimated in the presence of 3 μM Tiotidine. Receptor proteins were filtered and washed, the filters were then counted to determine [^125I]Aminopotentidine specifically bound. Compounds were screened at 1 μM, using 1% DMSO as vehicle. Biochemical assay results are presented as the percent inhibition of specific binding in Table 5.

[3] = target: T3, human recombinant adrenergic α1D receptor (Homo sapiens, UniProt P25100); assay: Adrenergic α1D radioligand binding ([3H]Prozosin); conditions: compound at 1 μM; HEK-293 cells; read-out: Adrenergic (1 μM) α1D, percent inhibition of specific binding
T3 construct: expressed in transfected cells; host or cells: HEK-293 cells
T3 sequence (P25100 1-572): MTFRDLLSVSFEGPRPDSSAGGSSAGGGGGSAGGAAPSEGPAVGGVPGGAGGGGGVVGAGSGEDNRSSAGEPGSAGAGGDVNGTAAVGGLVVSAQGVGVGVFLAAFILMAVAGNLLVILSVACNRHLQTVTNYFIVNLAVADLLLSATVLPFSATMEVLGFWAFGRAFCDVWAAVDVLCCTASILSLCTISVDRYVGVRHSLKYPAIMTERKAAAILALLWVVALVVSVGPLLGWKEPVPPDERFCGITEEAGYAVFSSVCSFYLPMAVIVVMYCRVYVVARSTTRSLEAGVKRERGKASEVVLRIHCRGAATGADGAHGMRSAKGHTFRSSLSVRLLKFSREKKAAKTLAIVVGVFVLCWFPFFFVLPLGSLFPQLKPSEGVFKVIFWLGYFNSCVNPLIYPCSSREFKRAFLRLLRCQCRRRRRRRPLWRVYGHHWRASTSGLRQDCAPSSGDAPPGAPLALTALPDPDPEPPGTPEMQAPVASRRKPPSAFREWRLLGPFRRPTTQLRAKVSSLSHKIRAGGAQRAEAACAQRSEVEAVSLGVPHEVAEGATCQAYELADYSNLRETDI
Protocol: To evaluate in radioligand binding assays the activity of compounds of the invention, human recombinant adrenergic α1D receptor expressed in human embryonic kidney (HEK-293) cells (Kenny, B. A. et al. Br. J. Pharmacol. 115(6):981, 1995) in a 50 mM Tris-HCl buffer, pH 7.4, was used. Compounds of invention were incubated with 0.6 nM [^3H]Prozosin for 60 minutes at 25° C. Non-specific binding was estimated in the presence of 10 μM phentolamine. Receptor proteins were filtered and washed, the filters were then counted to determine [^3H]Prozosin specifically bound. Compounds were screened at 1 μM or lower, using 1% DMSO as vehicle. Biochemical assay results are presented as the percent inhibition of specific binding in Table 6.

[4] = target: T4, human recombinant histamine H1 receptor (Homo sapiens, UniProt P35367); assay: Histamine H1 radioligand binding ([3H]Pyrilamine); conditions: compound at 1 μM; CHO cells; read-out: Histamine Binding (1 μM) H1, percent inhibition of specific binding
T4 construct: expressed in transfected cells; host or cells: CHO cells
Protocol: To evaluate in radioligand binding assays the activity of compounds of the invention, human recombinant histamine H1 receptor expressed in Chinese hamster ovary (CHO) cells (De Backer, M. D. et al., Biochem. Biophys. Res. Comm. 197(3):1601, 1993) in a modified Tris-HCl buffer (50 mM Tris-HCl, pH 7.4, 2 mM MgCl2, 100 mM NaCl, 250 mM Sucrose) was used. Compounds of the invention were incubated with 1.2 nM [^3H]Pyrilamine for 180 minutes at 25° C. Non-specific binding was estimated in the presence of 1 μM pyrilamine. Receptor proteins were filtered and washed, the filters were then counted to determine [^3H]Pyrilamine specifically bound. Compounds were screened at 1 μM, using 1% DMSO as vehicle. Biochemical assay results are presented as the percent inhibition of specific binding in Table 5.

T4 sequence (P35367 whole entry): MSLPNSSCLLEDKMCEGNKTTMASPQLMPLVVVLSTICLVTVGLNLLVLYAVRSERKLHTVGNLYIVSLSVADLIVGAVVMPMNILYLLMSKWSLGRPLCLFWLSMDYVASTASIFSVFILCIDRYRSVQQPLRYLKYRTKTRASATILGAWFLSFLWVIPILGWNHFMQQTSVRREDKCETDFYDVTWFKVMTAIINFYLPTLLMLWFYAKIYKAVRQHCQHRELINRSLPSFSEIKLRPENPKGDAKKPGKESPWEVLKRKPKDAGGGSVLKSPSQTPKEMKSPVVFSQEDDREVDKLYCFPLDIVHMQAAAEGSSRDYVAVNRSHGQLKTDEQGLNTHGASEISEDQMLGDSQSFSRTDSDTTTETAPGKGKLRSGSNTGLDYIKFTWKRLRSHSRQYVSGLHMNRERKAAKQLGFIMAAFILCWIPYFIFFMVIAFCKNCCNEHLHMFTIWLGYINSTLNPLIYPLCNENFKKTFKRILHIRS
T2 sequence (P25021 whole entry): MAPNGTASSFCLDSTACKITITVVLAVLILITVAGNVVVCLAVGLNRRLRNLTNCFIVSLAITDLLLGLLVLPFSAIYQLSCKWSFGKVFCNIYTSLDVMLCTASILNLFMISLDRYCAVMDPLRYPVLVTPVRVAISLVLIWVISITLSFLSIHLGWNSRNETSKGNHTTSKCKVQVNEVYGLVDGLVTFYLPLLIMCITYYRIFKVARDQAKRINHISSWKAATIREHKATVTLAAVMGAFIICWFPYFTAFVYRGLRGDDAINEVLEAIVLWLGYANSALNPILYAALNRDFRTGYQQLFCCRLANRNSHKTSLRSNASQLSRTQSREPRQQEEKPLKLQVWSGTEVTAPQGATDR

| Structure (SMILES) | inhibition at 1 µM [1] | inhibition at 1 µM [2] | inhibition at 1 µM [3] | inhibition at 1 µM [4] |
| --- | --- | --- | --- | --- |
| CN1CCc2c(c3cc(Cl)ccc3n2CCO)C1 [CD89, 2-(8-chloro-2-methyl-3,4-dihydro-1H-pyrido[4,3-b]indol-5(2H)-yl)ethanol] | 84% | 14% | 69% | 92% |
| Cc1ccc2c(c1)c1c(n2CCO)CCN(C)C1 [CD90, 2-(2,8-dimethyl-3,4-dihydro-1H-pyrido[4,3-b]indol-5(2H)-yl)ethanol] | 91% | 11% | 23% | 60% |
| Cc1ccc2c(c1)c1c(n2CCBr)CCN(C)C1 [CD91, 5-(2-bromoethyl)-2,8-dimethyl-2,3,4,5-tetrahydro-1H-pyrido[4,3-b]indole] | 98% | 65% | 88% | 98% |
| Cc1ccc2c(c1)c1c(n2CCC#N)CCN(C)C1 [CD92, 3-(2,8-dimethyl-3,4-dihydro-1H-pyrido[4,3-b]indol-5(2H)-yl)propanenitrile] | 61% | 8% | 78% | 99% |
| CN1CCc2c(c3cc(Cl)ccc3n2CCC#N)C1 [CD94, 3-(8-chloro-2-methyl-3,4-dihydro-1H-pyrido[4,3-b]indol-5(2H)-yl)propanenitrile] | 71% | 2% | 74% | 97% |
| CNC(=O)CCn1c2c(c3cc(C)ccc31)CN(C)CC2 [Compound 1, 3-(1,2,3,4-tetrahydro-2,8-dimethylpyrido[4,3-b]indol-5-yl)-N-methylpropanamide] | 20% | 8% | 20% | 34% |
| CCNC(=O)CCn1c2c(c3cc(C)ccc31)CN(C)CC2 [Compound 2, N-ethyl-3-(1,2,3,4-tetrahydro-2,8-dimethylpyrido[4,3-b]indol-5-yl)propanamide] | -5% | 5% | 17% | 52% |
| Cc1ccc2c(c1)c1c(n2CCC(=O)NC2CCCCC2)CCN(C)C1 [Compound 3, N-cyclohexyl-3-(1,2,3,4-tetrahydro-2,8-dimethylpyrido[4,3-b]indol-5-yl)propanamide] | 29% | 23% | 45% | 2% |
| Cc1ccc2c(c1)c1c(n2CCC(=O)NC2CCCC2)CCN(C)C1 [Compound 4, N-cyclopentyl-3-(1,2,3,4-tetrahydro-2,8-dimethylpyrido[4,3-b]indol-5-yl)propanamide] | 36% | 20% | 64% | 60% |
| CCOC(=O)CCCn1c2c(c3cc(C)ccc31)CN(C)CC2 [Compound 5, ethyl 4-(1,2,3,4-tetrahydro-2,8-dimethylpyrido[4,3-b]indol-5-yl)butanoate] | 96% | 48% | 70% | 96% |
| CCNC(=O)CCCn1c2c(c3cc(C)ccc31)CN(C)CC2 [Compound 6, N-ethyl-4-(1,2,3,4-tetrahydro-2,8-dimethylpyrido[4,3-b]indol-5-yl)butanamide] | 45% | 0% | 0% | 46% |
| Cc1ccc2c(c1)c1c(n2CCNC(=O)OCC(Cl)(Cl)Cl)CCN(C)C1 [Compound 8, 2,2,2-trichloroethyl 2-(1,2,3,4-tetrahydro-2,8-dimethylpyrido[4,3-b]indol-5-yl)ethylcarbamate] | 99% | 74% | 72% | 101% |
| CCOC(=O)Cn1c2c(c3cc(Cl)ccc31)CN(C)CC2 [Compound 10, ethyl 2-(8-chloro-1,2,3,4-tetrahydro-2-methylpyrido[4,3-b]indol-5-yl)acetate] | 92% | 28% | 50% | 99% |
| CC(C)OC(=O)Cn1c2c(c3cc(Cl)ccc31)CN(C)CC2 [Compound 11, isopropyl 2-(8-chloro-1,2,3,4-tetrahydro-2-methylpyrido[4,3-b]indol-5-yl)acetate] | 71% | 7% | 38% | 101% |
| CN1CCc2c(c3cc(Cl)ccc3n2CC(=O)OC(C)(C)C)C1 [Compound 12, tert-butyl 2-(8-chloro-1,2,3,4-tetrahydro-2-methylpyrido[4,3-b]indol-5-yl)acetate] | 83% | 40% | 13% | 101% |
| CN1CCc2c(c3cc(Cl)ccc3n2CC(=O)OCc2ccccc2)C1 [Compound 13, benzyl 2-(8-chloro-1,2,3,4-tetrahydro-2-methylpyrido[4,3-b]indol-5-yl)acetate] | 91% | 51% | 55% | 96% |
| CN1CCc2c(c3cc(Cl)ccc3n2CC(=O)OCC2CCCCC2)C1 [Compound 14, cyclohexylmethyl 2-(8-chloro-1,2,3,4-tetrahydro-2-methylpyrido[4,3-b]indol-5-yl)acetate] | 94% | 89% | 72% | 98% |
| CN1CCc2c(c3cc(Cl)ccc3n2CC(=O)OC2CCCC2)C1 [Compound 15] | 94% | 47% | 58% | 99% |
| CC(C)OC(=O)CCn1c2c(c3cc(Cl)ccc31)CN(C)CC2 [Compound 17, isopropyl 3-(8-chloro-1,2,3,4-tetrahydro-2-methylpyrido[4,3-b]indol-5-yl)propanoate] | 91% | 64% | 73% | 96% |
